Assay results taken from patent US12590091B2, “1H-pyrrolo[3,2-C]pyridine and 1H-pyrrolo[2,3-C]pyridine derivatives as TLR9 inhibitors for the treatment of fibrosis” (BRISTOL-MYERS SQUIBB COMPANY, priority 2020, dated 2026).

Assays:
[1] = molecular target: T1, human TLR9 (Homo sapiens, UniProt Q9NR96); assay: TLR9 inhibition reporter assay (HEK-Blue cells, SEAP reporter); assay type: cell-based; conditions: HEK-Blue cells overexpressing human TLR9, stimulated with ODN2006 5 nM, 22 hour incubation
T1 construct: host or cells: HEK-Blue cells
T1 sequence (Q9NR96 26-1032): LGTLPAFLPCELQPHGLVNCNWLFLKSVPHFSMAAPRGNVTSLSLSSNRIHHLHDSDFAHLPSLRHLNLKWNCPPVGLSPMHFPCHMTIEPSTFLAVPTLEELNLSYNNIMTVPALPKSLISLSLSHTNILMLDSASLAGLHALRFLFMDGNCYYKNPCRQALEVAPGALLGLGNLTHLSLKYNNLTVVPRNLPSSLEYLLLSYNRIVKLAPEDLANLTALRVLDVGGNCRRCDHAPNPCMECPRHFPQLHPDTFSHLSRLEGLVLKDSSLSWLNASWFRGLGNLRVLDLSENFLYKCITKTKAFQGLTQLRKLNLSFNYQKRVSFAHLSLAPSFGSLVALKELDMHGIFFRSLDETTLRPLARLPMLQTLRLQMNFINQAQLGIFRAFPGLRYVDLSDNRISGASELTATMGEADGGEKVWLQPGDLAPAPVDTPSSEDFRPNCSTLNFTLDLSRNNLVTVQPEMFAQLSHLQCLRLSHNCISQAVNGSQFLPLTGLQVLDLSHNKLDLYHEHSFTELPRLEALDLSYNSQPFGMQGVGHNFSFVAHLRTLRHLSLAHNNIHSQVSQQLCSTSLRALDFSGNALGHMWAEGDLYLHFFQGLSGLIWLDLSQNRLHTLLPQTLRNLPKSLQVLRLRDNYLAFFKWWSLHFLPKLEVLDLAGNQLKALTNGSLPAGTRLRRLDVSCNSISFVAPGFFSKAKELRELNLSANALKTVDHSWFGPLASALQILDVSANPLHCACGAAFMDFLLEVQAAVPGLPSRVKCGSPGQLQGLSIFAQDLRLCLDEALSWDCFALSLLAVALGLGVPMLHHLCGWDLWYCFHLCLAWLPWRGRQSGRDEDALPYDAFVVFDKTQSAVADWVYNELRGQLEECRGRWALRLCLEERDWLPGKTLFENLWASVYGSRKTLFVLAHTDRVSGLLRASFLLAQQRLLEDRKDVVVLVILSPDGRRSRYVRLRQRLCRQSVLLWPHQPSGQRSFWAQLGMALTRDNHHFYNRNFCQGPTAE
How it was run: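 Compound dose-response (0.05 nM–50 μM final) on agonist-stimulated human TLR9 HEK-Blue cells, 25,000/well, incubated 22 h at 37 °C, 5% CO2. Readout was secreted alkaline phosphatase under an IFN-β minimal promoter with NF-κB/AP-1 sites; inhibition expressed relative to DMSO and reference-inhibitor controls.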

[2] = molecular target: T2, human TLR8 (Homo sapiens, UniProt Q9NR97); assay: TLR8 inhibition reporter assay (HEK-Blue cells, SEAP reporter); assay type: cell-based; conditions: HEK-Blue cells overexpressing human TLR8, stimulated with R848 15.9 μM, 22 hour incubation
T2 construct: host or cells: HEK-Blue cells
T2 sequence (Q9NR97 27-1041): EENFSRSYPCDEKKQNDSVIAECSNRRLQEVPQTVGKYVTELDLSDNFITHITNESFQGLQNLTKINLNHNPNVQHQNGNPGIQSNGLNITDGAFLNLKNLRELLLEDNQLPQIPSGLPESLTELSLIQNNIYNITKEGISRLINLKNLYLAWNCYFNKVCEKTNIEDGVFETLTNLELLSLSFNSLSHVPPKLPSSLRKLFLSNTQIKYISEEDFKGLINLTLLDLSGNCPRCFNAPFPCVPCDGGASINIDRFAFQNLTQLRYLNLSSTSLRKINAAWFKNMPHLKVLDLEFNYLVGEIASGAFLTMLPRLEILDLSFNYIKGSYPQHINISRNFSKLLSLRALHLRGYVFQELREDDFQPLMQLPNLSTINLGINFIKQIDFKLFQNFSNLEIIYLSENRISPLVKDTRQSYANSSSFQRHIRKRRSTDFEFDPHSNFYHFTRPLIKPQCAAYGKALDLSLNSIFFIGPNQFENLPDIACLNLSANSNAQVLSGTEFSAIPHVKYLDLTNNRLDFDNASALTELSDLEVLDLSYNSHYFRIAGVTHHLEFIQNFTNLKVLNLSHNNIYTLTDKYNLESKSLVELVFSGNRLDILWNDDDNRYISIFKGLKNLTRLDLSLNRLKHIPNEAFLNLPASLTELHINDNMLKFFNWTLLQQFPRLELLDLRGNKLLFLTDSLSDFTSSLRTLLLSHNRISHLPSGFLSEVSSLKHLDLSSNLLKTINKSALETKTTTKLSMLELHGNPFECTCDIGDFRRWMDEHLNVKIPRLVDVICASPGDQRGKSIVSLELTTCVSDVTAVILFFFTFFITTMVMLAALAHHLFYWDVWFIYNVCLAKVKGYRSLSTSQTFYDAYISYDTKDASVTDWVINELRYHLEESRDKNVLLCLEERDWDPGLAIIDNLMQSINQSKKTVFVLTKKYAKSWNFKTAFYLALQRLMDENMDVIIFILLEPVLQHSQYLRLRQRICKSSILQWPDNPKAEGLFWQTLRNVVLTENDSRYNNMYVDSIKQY
How it was run: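 HEK-Blue cells overexpressing human TLR7, TLR8 or TLR9 carry a SEAP reporter driven by NF-κB/AP-1 sites. Compounds (0.05 nM–50 μM) were preincubated 30 min at room temperature, then cells were stimulated with gardiquimod 7.5 μM (TLR7), R848 15.9 μM (TLR8) or ODN2006 5 nM (TLR9) for 22 h at 37 °C.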

SMILES | IC50 [1] [nM] | IC50 [2] [nM]
Cc1nc(-c2cc(F)c(N3CCN(C4CCOCC4)CC3)c(F)c2)cc2c1cc(-c1ccc(S(C)(=O)=O)cc1)n2C [Example 89, 6-(3,5-difluoro-4-(4-(tetrahydro-2H-pyran-4-yl)piperazin-1-yl)phenyl)-1,4-dimethyl-2-(4-(methylsulfonyl)phenyl)-1H-pyrrolo[3,2-c]pyridine] | 226 | > 50000
Cc1nc(-c2ccc(C3(O)CC4CCC(C3)N4CC(C)C)c(F)c2)cc2c1cc(-c1ccc(S(C)(=O)=O)cc1)n2C [Example 91, (1R,3r,5S)-3-(4-(1,4-dimethyl-2-(4-(methylsulfonyl)phenyl)-1H-pyrrolo[3,2-c]pyridin-6-yl)-2-fluorophenyl)-8-isobutyl-8-azabicyclo[3.2.1]octan-3-ol] | 735 | 1300
Cc1nc(-c2ccc(C3(O)CCN(C4CC4)CC3)c(F)c2)cc2c1cc(-c1ccc(S(C)(=O)=O)cc1)n2C [Example 93, 1-cyclopropyl-4-(4-(1,4-dimethyl-2-(4-(methylsulfonyl)phenyl)-1H-pyrrolo[3,2-c]pyridin-6-yl)-2-fluorophenyl)piperidin-4-ol] | 1430 | > 50000
COCCN1CCC(O)(c2cc(F)c(-c3cc4c(cc(-c5ccc(S(C)(=O)=O)cc5)n4C)c(C)n3)cc2F)CC1 [Example 95, 4-(4-(1,4-dimethyl-2-(4-(methylsulfonyl)phenyl)-1H-pyrrolo[3,2-c]pyridin-6-yl)-2,5-difluorophenyl)-1-(2-methoxyethyl)piperidin-4-ol] | 537 | 2700
Cc1nc(-c2cc(F)c(C3(O)CCN(C4CC4)CC3)cc2F)cc2c1cc(-c1ccc(S(C)(=O)=O)cc1)n2C [Example 96, 1-cyclopropyl-4-(4-(1,4-dimethyl-2-(4-(methylsulfonyl)phenyl)-1H-pyrrolo[3,2-c]pyridin-6-yl)-2,5-difluorophenyl)piperidin-4-ol] | 162 | 4100
Cc1nc(-c2cc(F)c(N3CCN4CCCC4C3)cc2F)cc2c1cc(-c1ccc(S(C)(=O)=O)cc1)n2C (stereo not drawn) [Example 97, 6-(2,5-difluoro-4-(hexahydropyrrolo[1,2-a]pyrazin-2(1H)-yl)phenyl)-1,4-dimethyl-2-(4-(methylsulfonyl)phenyl)-1H-pyrrolo[3,2-c]pyridine] | 202 | 5300
Cc1nc(-c2cc(F)c(N3CCN4CCCC4C3)c(F)c2)cc2c1cc(-c1ccc(S(C)(=O)=O)cc1)n2C (stereo not drawn) [Example 98, 6-(3,5-difluoro-4-(hexahydropyrrolo[1,2-a]pyrazin-2(1H)-yl)phenyl)-1,4-dimethyl-2-(4-(methylsulfonyl)phenyl)-1H-pyrrolo[3,2-c]pyridine] | 212 | > 50000

Molecules with a lower IC50 [1], results first:

IC50 [1] [nM] | IC50 [2] [nM] | SMILES
111 | 5200 | CCOC(=O)N1CCC(N2CCC(c3cc4c(cn3)cc(-c3ccc(OC)c(OC)c3)n4C)CC2)CC1 [Example 7, Ethyl 4-(2-(3,4-dimethoxyphenyl)-1-methyl-1H-pyrrolo[3,2-c]pyridin-6-yl)-[1,4′-bipiperidine]-1′-carboxylate]
58 | 25900 | COc1ccc(-c2cc3cnc(C4CCN(Cc5ccc(C)nc5)CC4)cc3n2C)cc1OC [Example 8, 2-(3,4-Dimethoxyphenyl)-1-methyl-6-(1-((6-methylpyridin-3-yl)methyl)piperidin-4-yl)-1H-pyrrolo[3,2-c]pyridine]
141 | 22100 | Cc1nc(-c2ccc(C3(O)CCN(CC(C)C)CC3)c(F)c2)cc2c1cc(-c1ccc(S(C)(=O)=O)cc1)n2C [Example 90, 4-(4-(1,4-dimethyl-2-(4-(methylsulfonyl)phenyl)-1H-pyrrolo[3,2-c]pyridin-6-yl)-2-fluorophenyl)-1-isobutylpiperidin-4-ol]
109 | > 50000 | COCCN1CCC(O)(c2ccc(-c3cc4c(cc(-c5ccc(S(C)(=O)=O)cc5)n4C)c(C)n3)cc2F)CC1 [Example 92, 4-(4-(1,4-dimethyl-2-(4-(methylsulfonyl)phenyl)-1H-pyrrolo[3,2-c]pyridin-6-yl)-2-fluorophenyl)-1-(2-methoxyethyl)piperidin-4-ol]
143 | 2500 | Cc1nc(-c2cc(F)c(C3(O)CCN(CC(C)C)CC3)cc2F)cc2c1cc(-c1ccc(S(C)(=O)=O)cc1)n2C [Example 94, 4-(4-(1,4-dimethyl-2-(4-(methylsulfonyl)phenyl)-1H-pyrrolo[3,2-c]pyridin-6-yl)-2,5-difluorophenyl)-1-isobutylpiperidin-4-ol]
